From article PMC6199744, “Development of Chemical Proteomics for the Folateome and Analysis of the Kinetoplastid Folateome” (ACS Infectious Diseases, 2018)
Read-outs that look alike come from different tables or passages of the source.

How the values were obtained:
Format in all cases: binding
[1] = target: T1, HeLa cell extract proteins (Homo sapiens, UniProt O75306)
T1 construct: endogenous in cells; host or cells: HeLa cell extract

[2] = target: T2, HeLa cell extract proteins (Homo sapiens, UniProt P07737)
T2 construct: endogenous in cells; host or cells: HeLa cell extract
T2 sequence (P07737 whole entry): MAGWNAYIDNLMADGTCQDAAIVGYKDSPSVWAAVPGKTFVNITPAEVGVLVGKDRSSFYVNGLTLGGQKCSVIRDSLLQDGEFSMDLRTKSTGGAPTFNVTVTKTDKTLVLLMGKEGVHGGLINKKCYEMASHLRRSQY

[3] = target: T3, HeLa cell extract proteins (Homo sapiens, UniProt P63104)
T3 construct: endogenous in cells; host or cells: HeLa cell extract
T3 sequence (P63104 1-245): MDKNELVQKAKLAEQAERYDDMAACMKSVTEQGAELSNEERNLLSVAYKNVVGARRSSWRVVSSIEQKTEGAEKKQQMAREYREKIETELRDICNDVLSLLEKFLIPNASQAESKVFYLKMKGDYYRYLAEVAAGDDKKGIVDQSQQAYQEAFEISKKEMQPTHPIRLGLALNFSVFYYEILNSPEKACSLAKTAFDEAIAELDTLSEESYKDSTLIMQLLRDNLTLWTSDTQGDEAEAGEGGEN

[4] = target: T4, HeLa cell extract proteins (Homo sapiens, UniProt Q8TCG1)
T4 construct: endogenous in cells; host or cells: HeLa cell extract

[5] = target: T5, HeLa cell extract proteins (Homo sapiens, UniProt Q96T76)
T5 construct: endogenous in cells; host or cells: HeLa cell extract
T5 sequence (Q96T76 1-1030): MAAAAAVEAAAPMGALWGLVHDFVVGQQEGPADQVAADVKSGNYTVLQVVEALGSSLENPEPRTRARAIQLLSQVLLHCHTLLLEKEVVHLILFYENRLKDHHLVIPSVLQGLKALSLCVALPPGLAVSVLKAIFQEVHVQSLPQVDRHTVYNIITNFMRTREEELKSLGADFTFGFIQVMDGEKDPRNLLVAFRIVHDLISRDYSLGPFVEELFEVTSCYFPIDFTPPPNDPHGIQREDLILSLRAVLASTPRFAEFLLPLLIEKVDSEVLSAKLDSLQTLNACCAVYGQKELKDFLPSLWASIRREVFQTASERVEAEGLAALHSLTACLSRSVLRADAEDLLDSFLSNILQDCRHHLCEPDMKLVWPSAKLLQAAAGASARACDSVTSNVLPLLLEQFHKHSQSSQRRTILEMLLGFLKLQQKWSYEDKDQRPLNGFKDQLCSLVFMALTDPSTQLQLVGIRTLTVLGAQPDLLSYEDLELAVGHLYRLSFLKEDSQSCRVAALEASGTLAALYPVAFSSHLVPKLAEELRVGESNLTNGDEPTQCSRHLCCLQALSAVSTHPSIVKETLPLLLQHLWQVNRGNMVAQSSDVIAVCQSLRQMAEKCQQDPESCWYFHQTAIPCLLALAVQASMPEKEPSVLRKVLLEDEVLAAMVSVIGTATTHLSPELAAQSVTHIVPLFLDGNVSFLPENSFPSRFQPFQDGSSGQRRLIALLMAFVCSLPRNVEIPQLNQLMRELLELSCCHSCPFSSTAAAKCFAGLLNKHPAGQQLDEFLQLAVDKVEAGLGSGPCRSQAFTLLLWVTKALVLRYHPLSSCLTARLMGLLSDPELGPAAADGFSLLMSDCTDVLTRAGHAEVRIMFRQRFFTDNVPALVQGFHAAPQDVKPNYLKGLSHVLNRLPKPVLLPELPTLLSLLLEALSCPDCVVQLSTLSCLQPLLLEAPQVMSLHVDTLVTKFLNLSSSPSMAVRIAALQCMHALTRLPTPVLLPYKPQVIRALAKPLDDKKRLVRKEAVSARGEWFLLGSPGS

[6] = target: T6, HeLa cell extract proteins (Homo sapiens, UniProt Q9UHX1)
T6 construct: endogenous in cells; host or cells: HeLa cell extract
T6 sequence (Q9UHX1 1-559): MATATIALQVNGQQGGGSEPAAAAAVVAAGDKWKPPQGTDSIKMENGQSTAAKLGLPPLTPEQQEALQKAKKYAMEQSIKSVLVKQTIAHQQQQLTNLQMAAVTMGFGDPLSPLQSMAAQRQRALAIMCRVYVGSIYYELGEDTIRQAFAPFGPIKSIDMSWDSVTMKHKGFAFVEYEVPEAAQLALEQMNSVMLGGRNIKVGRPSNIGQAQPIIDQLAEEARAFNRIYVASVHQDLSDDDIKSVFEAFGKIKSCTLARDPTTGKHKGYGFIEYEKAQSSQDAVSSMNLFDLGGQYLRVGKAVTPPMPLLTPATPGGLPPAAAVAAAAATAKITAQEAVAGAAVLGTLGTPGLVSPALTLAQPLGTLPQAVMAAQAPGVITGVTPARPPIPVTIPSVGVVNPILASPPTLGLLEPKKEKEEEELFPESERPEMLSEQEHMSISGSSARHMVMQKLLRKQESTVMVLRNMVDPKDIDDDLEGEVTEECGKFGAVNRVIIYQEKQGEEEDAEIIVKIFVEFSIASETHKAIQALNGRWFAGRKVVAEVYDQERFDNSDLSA

[7] = target: T7, HeLa cell extract proteins (Homo sapiens, UniProt Q9Y6E2)
T7 construct: endogenous in cells; host or cells: HeLa cell extract
T7 sequence (Q9Y6E2 1-419): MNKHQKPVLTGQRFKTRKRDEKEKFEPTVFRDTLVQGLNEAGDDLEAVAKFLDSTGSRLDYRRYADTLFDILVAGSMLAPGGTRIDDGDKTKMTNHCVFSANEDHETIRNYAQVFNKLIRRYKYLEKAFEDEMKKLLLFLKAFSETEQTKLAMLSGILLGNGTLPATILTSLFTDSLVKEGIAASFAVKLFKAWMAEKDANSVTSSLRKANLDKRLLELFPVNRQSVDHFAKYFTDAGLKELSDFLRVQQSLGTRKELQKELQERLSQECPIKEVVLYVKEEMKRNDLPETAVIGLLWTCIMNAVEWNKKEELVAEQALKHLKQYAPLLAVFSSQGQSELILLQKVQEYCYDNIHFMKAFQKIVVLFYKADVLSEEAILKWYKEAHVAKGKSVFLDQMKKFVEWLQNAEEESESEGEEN

[8] = HeLa, protein PFN1 (PROFILIN-1.)
[9] = HeLa, protein YWHAZ (28 KDA PROTEIN.)
[10] = captured protein KIAA1524, HeLa

T1 sequence (O75306 34-463): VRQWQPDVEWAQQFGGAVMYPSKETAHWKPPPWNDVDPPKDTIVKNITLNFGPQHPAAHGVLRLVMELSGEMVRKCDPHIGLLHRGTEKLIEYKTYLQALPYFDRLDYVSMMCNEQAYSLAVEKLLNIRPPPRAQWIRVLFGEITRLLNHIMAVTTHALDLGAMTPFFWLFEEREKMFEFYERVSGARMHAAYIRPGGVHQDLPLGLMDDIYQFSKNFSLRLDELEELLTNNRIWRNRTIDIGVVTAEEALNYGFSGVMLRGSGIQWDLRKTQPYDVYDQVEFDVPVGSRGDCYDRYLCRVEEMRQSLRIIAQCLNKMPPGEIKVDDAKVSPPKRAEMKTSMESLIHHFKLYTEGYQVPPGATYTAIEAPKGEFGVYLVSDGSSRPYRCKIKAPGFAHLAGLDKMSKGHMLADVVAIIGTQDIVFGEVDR

Compound	fold changes relative to vehicle control ([1]; protein NDUFS2, HeLa)	fold changes relative to vehicle control ([2]; HeLa, protein PFN1)	fold changes relative to vehicle control ([3]; HeLa, protein YWHAZ)	fold changes relative to vehicle control ([4]; HeLa, protein KIAA1524)	fold changes relative to vehicle control ([5]; HeLa, protein MMS19)	fold changes relative to vehicle control ([6]; HeLa, captured protein PUF60)	fold changes relative to vehicle control ([7]; HeLa, protein BZW2)	fold changes relative to vehicle control ([1]; HeLa, protein NDUFS2)	fold changes relative to vehicle control [2, 8]	fold changes relative to vehicle control [3, 9]	fold changes relative to vehicle control [4, 10]	fold changes relative to vehicle control ([5]; captured protein MMS19, HeLa)	fold changes relative to vehicle control ([6]; HeLa, protein PUF60)	fold changes relative to vehicle control ([7]; protein BZW2, HeLa)	also measured
Nc1nc2c(c(=O)[nH]1)N(C=O)C(CNc1ccc(C(=O)N[C@@H](CCC(=O)O)C(=O)O)cc1)CN2 (stereo partly shown) [LEU, leucovorin]	0.86	1.22	1.05	0.87	0.87	1.01	0.99	–	–	–	–	–	–	–	–
Nc1nc2[nH]cc(CCc3ccc(C(=O)N[C@@H](CCC(=O)O)C(=O)O)cc3)c2c(=O)[nH]1 [PTX, pemetrexed]	–	–	–	–	–	–	–	–	–	–	–	–	–	–	fold changes relative to vehicle control [1]: 0.92; fold changes relative to vehicle control [2]: 1.43; fold changes relative to vehicle control [3]: 1.08; fold changes relative to vehicle control [4]: 0.87; fold changes relative to vehicle control [5]: 0.82; fold changes relative to vehicle control [6]: 0.9; fold changes relative to vehicle control [7]: 0.98
CCCCCCOc1ccc(Cc2cnc(N)nc2N)cc1 [compound 1]	–	–	–	–	–	–	–	1.15	1.64 fold	1.31 fold	0.97	0.79	1.01	1.11	–
CCCCCCOc1cccc(Cc2cnc(N)nc2N)c1 [compound 2]	–	–	–	–	–	–	–	1.12	2.32 fold	2.26 fold	1.09	0.94	1.05	1.57	–
Nc1nc2cccc(-c3ccccc3)c2n1Cc1ccc(Cl)c(Cl)c1 [compound 3]	–	–	–	–	–	–	–	1.3	1.03 fold	0.72 fold	0.98	1.02	1.02	0.93	–
NCCOCCOCC(=O)Nc1nc2ncc(CNc3ccc(C(=O)NC(CCC(=O)O)C(=O)O)cc3)nc2c(=O)[nH]1 (stereo not shown) [compound 6]	1.12	1.47	1.22	0.94	0.97	0.92	1.1	–	–	–	–	–	–	–	–
NCCCNc1ccc(C(=O)NC(CCC(=O)O)C(=O)O)cc1 (stereo not shown) [compound 7]	1.13	1.21	0.9	0.89	1.02	0.95	1.12	–	–	–	–	–	–	–	–
